Where “and” joins values, the source holds several entries; their conditions need not be identical. Equal values may be shown once. Read-outs that look alike come from different tables or passages of the source.

By IC50 is commonly meant the midpoint of a concentration-inhibition curve. By melting point is commonly meant the temperature, or range, at which the solid turns liquid.

For series [1], the system named is human KARPAS-299 lympoma cell line. In words: Antiproliferative action in KARPAS-299 lymphoma cell line. The format is cell-based. As to conditions: KARPAS-299 cell line, same methodology as BaF3-NPM-ALK.
For series [2], the system named is human NPM-ALK overexpressing murine BaF3 cells (BaF3-NPM-ALK). As to the kind of experiment: Growth inhibition of BaF3-NPM-ALK cells (Yopro staining). The format is cell-based. To be noted: Mus musculus, 48 h, two days incubation. The source says: The expression of NPM-ALK is achieved by transfecting the BaF3 cell line with an expression vector pCIneo™ (Promega Corp., Madison Wis., USA ) coding for NPM-ALK and subsequent selection of G418 resistant cells. Non-transfected BaF3 cells depend on IL-3 for cell survival. In contrast NPM-ALK expressing BaF3 cells (named BaF3-NPM-ALK) can proliferate in the absence of IL-3 because they obtain proliferative signal through NPM-ALK kinase. Putative inhibitors of the NPM-ALK kinase therefore abolish the growth signal and result in antiproliferaflve activity. The antiproliferative activity of putative inhibitors of the NPM-ALK kinase can however be overcome by addition of IL-3 which provides growth signals through an NPM-ALK independent mechanism. [for an analogous cell system using FLT3 kinase see E Weisberg et al. Cancer Cell; 1, 433-443 (2002). The inhibitory activity of the compounds of formula I is determined, briefly, as follows: BaF3-NPM-ALK cells (15 000/microtitre plate well) are transferred to 96-well microtitre plates. The test compounds [dissolved in dimethyl sulfoxide (DMSO)] are added in a series of concentrations (dilution series) in such a manner that the final concentration of DMSO is not greater than 1% (v/v). After the addition, the plates are incubated for two days during which the control cultures without test compound are able to undergo two cell-division cycles. The growth of the BaF3-NPM-ALK cells is measured by means of Yopro™ staining (T ldziorek et al. J. Immunol. Methods; 185:249-58 [1995]): 25 μl of lysis buffer consisting of 20 mM sodium citrate, pH 4.0, 26.8 mM sodium chloride, 0.4% NP40, 20 mM EDTA and […] to each well. Cell lysis was completed within 60 min at room temperature and total amount of Yopro bound to DNA was determined by measurement using the Cytofluor II 96-well reader (PerSeptive Biosystems) with the following settings: Excitation (nm) 485/20 and Emission (nm) 530/25.
IC50 values are determined by a computer-aided system using the formula: ICr50=[(ABStest−ABSstart)/(ABScontrol−ABSstart)]×100.

The target of series [3] is T1, recombinant kinase domain of the ALK (Homo sapiens, UniProt Q9UM73).
T1 construct: using the recombinant kinase domain of the ALK
As to the kind of experiment: Inhibition of ALK tyrosine kinase activity. The format is biochemical. To be noted: each compound tested twice, once each with two different preparations of ALK. As to the method: The inhibition of ALK tyrosine kinase activity is measured using known methods, for example using the recombinant kinase domain of the ALK in analogy to the VEGF-R kinase assay described in J. Wood et al. Cancer Res. 60, 2178-2189 (2000). The table below reports the IC50 values for several compounds of the present invention. Each compound is tested twice, once each with two different preparations of ALK.

Where [4] appears, read: with IL3, read-out: BaF3 NPM-ALK with IL3 IC50.
Where [5] appears, read: without IL3, read-out: BaF3 NPM-ALK without IL3 IC50.

T1 sequence (Q9UM73 1116-1392 limits assumed): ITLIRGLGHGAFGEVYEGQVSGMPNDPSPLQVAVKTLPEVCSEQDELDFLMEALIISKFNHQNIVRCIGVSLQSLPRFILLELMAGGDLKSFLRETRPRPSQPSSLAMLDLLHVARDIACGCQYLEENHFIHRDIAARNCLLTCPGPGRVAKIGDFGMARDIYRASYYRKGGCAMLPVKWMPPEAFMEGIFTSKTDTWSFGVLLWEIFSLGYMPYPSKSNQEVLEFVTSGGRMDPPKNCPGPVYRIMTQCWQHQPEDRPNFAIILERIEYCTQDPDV

On to `CN(C)S(=O)(=O)c1ccccc1Nc1ccnc(Nc2cccc(OCCn3ccnc3)c2)n1` [Ex. 48], for which the IC50 was 270 nM in series [1]; 1400 nM in series [2] (setting [4]); 550 nM in series [2] (setting [5]); 48 nM and 83 nM in series [3].
Take `COc1cc(Nc2nccc(Nc3cccc(C)c3S(N)(=O)=O)n2)cc(OC)c1OC` [Example 3, 2-methyl-6-[2-(3,4,5-Trimethoxy-phenylamino)-pyrimidin-4-ylamino]-benzenesulfonamide]: the melting point is 72 to 75 °C.
In the case of `COc1cc(Nc2nccc(Nc3ccccc3S(=O)(=O)N(C)C)n2)cc(OC)c1OC` [Ex. 56], the IC50 in series [1] is 150 nM; in series [2] (setting [4]), 2700 nM; in series [2] (setting [5]) it was 410 nM; in series [3], 180 nM and 86 nM.
Consider `CCCNS(=O)(=O)c1ccccc1Nc1ccnc(Nc2cc(OC)c(OC)c(OC)c2)n1` [Ex. 58], for which the IC50 in series [1] was 330 nM; in series [2] (setting [4]) it was 2600 nM; in series [2] (setting [5]) it was 560 nM; in series [3], 46 nM and 90 nM.

(Values after patent publication US20070105839A1, “2, 4-Di (phenylamino) pyrimidines useful in the treatment of proliferative disorders” (priority 2003, published 2007).)
